Measured values from patent US5401772A, “Heteroacetic acid derivatives” (Ciba-Geigy Corporation, priority 1993, dated 1995).

Tests used:
Assay type in all cases: in vivo
[1] = tested on: serum cholesterol; assay: Cholesterol-lowering activity in normocholesterolemic dogs; details: Canis lupus familiaris, po, 120 h, dog, p.o., 5 days, regular chow, read-out: daily dose that significantly lowers serum cholesterol
Description: (§1) Male Sprague-Dawley rats (230-250 g) (Taconic Farms) are maintained ad libium on water and a high cholesterol diet (1.5% cholesterol and 0.5% cholic acid) for two weeks prior to and during the 7-day treatment period. Groups of animals are treated orally by gavage with the vehicle alone or with test compound for 7 consecutive days. After the host dose, animals are fasted for 18 hours and blood is collected. Blood samples are centrifuged at 2500 rpm for 10 minutes to prepare plasma for total cholesterol determination as well as LDL and HDL cholesterol concentrations. HDL values are determined after LDL/VLDL precipitation (Warnick and Albers, 1978). All samples are analyzed enzymatically for cholesterol with a diagnostic reagent kit (Sigma Chemical Co., St. Louis, MO). The analysis is performed on a Bio-Mek automated work station. […] The samples are vortexed and are placed on ice for 15 minutes, then centrifuged at 4° C. for 10 minutes at 1300 rpm and the supernatant is enzymatically analyzed for cholesterol. […]
(§2) Cholesterol-lowering activity can also be evaluated in normocholesterolemic dogs fed regular chow following the procedure described above, by administration of test compound orally for 5 days; also in normolipomic cynomolgus monkeys.

[2] = tested on: serum cholesterol; assay: Cholesterol lowering activity in the rat (high cholesterol diet); details: po, 168 h, p.o., 7 consecutive days, read-out: daily dose that significantly lowers serum cholesterol
Description: Cholesterol lowering activity is determined in the rat as follows:
Male Sprague-Dawley rats (230-250 g) (Taconic Farms) are maintained ad libium on water and a high cholesterol diet (1.5% cholesterol and 0.5% cholic acid) for two weeks prior to and during the 7-day treatment period. Groups of animals are treated orally by gavage with the vehicle alone or with test compound for 7 consecutive days. After the host dose, animals are fasted for 18 hours and blood is collected. Blood samples are centrifuged at 2500 rpm for 10 minutes to prepare plasma for total cholesterol determination as well as LDL and HDL cholesterol concentrations. HDL values are determined after LDL/VLDL precipitation (Warnick and Albers, 1978). All samples are analyzed enzymatically for cholesterol with a diagnostic reagent kit (Sigma Chemical Co., St. Louis, MO). The analysis is performed on a Bio-Mek automated work station. LDL/VLDL fractions are precipitated in the following manner: 0.35 ml of plasma is aliquoted into Eppendorf tubes to which 12 μl of 2M manganese chloride, 11.2 μl of sodium heparin (Porcine Intestinal, 5000 units/ml), and 8.3 μl of normal saline are added. The samples are vortexed and are placed on ice for 15 minutes, then centrifuged at 4° C. for 10 minutes at 1300 rpm and the supernatant is enzymatically analyzed for cholesterol. […]

[3] = tested on: serum cholesterol; assay: Cholesterol-lowering activity in normolipomic cynomolgus monkeys; details: Macaca fascicularis, po, monkey, p.o., read-out: daily dose that significantly lowers serum cholesterol
Description: as §1, §2

Compound	minimal effective dose [1]	minimal effective dose [2]	minimal effective dose [3]
Cc1cc(NC(=O)C(=O)O)cc(C)c1Oc1ccc(O)c(C(C)C)c1 [N-[3,5-dimethyl-4-(4'-hydroxy-3'-isopropylphenoxy)-phenyl]oxamic acid]	~0.03 mg/kg/day	~0.02 mg/kg/day	–
CCOC(=O)C(=O)Nc1cc(C)c(Oc2ccc(O)c(C(O)c3ccc(F)cc3)c2)c(C)c1 (centres unmarked) [ethyl N-[4-[3'-[(4-fluorophenyl) hydroxymethyl]-4'-hydroxyphenoxy]-3,5-dimethylphenyl]oxamate]	~0.01 mg/kg/day	~0.005 mg/kg/day	~0.001 mg/kg/day
